From the NIST ThermoML archive (doi:10.1016/j.jct.2014.07.019)

Experiment: xn = mol fraction of the nth substance listed
Settings: 100 kPa, Liquid; for speed of sound: Frequency=3 MHz, Sing-around technique in a fixed-path interferometer; for mass density: Vibrating tube method

CCCCOCC(C)O (stereo not given) [1-butoxy-2-propanol] + CCCCO
Settings	mass density, 293.15 K [kg/m3]	mass density, 298.15 K [kg/m3]	mass density, 303.15 K [kg/m3]	mass density, 308.15 K [kg/m3]	mass density, 313.15 K [kg/m3]	speed of sound, 293.15 K [m/s]	speed of sound, 298.15 K [m/s]	speed of sound, 303.15 K [m/s]	speed of sound, 308.15 K [m/s]	speed of sound, 313.15 K [m/s]
x1 = 0.0519	815.814	811.979	808.09	804.168	800.279	1259.9	1243.7	1227.1	1210.6	1193
x1 = 0.0992	821.015	817.166	813.235	809.277	805.328	1262.1	1246.1	1229.4	1212.9	1194.8
x1 = 0.1522	826.515	822.607	818.628	814.607	810.63	1264.4	1248.7	1232	1215.4	1196.7
x1 = 0.2025	831.372	827.404	823.395	819.351	815.31	1266.4	1250.8	1234.1	1217.4	1198.4
x1 = 0.2533	835.963	831.953	827.91	823.833	819.767	1268.2	1252.7	1235.8	1219	1199.9
x1 = 0.3031	840.187	836.14	832.063	827.949	823.842	1269.8	1254.1	1237.2	1220.3	1201.2
x1 = 0.4039	847.844	843.734	839.592	835.411	831.226	1272.5	1256.4	1239.4	1222.4	1203.2
x1 = 0.4992	854.333	850.165	845.969	841.732	837.498	1274.5	1258.4	1241.2	1224	1204.8
x1 = 0.6055	860.746	856.533	852.278	847.986	843.678	1276.3	1260.1	1242.8	1225.4	1206.2
x1 = 0.7017	865.941	861.685	857.378	853.038	848.688	1277.4	1260.8	1243.5	1226.1	1207
x1 = 0.8058	871.007	866.701	862.345	857.961	853.562	1278.3	1261.3	1243.9	1226.4	1207.5
x1 = 0.852	873.053	868.741	864.367	859.962	855.538	1278.6	1261.3	1243.9	1226.3	1207.5
x1 = 0.8982	875.005	870.664	866.282	861.844	857.451	1278.8	1261.3	1243.9	1226.3	1207.5
x1 = 0.9565	877.407	873.039	868.667	864.216	859.743	1279	1261.5	1243.9	1226.3	1207.5
x1 = 1	879.031	874.632	870.204	865.737	861.241	1279	1260.9	1242.9	1224.9	1207

CCCCOCC(C)O (stereo not given) [1-butoxy-2-propanol] + CC(C)O
Settings	mass density, 293.15 K [kg/m3]	mass density, 298.15 K [kg/m3]	mass density, 303.15 K [kg/m3]	mass density, 308.15 K [kg/m3]	mass density, 313.15 K [kg/m3]	speed of sound, 293.15 K [m/s]	speed of sound, 298.15 K [m/s]	speed of sound, 303.15 K [m/s]	speed of sound, 308.15 K [m/s]	speed of sound, 313.15 K [m/s]
x1 = 0.0518	795.249	791.104	787.006	782.711	778.081	1178.7	1159	1141.8	1124.3	1103.5
x1 = 0.1029	803.695	799.527	795.386	791.07	786.435	1188.9	1168.9	1150.7	1133.2	1111.5
x1 = 0.1532	811.327	807.143	802.969	798.631	793.996	1197.5	1178.3	1159.2	1141.6	1121.5
x1 = 0.2019	818.045	813.834	809.64	805.279	800.656	1205.8	1186.1	1166.8	1149.2	1129.9
x1 = 0.2529	824.525	820.286	816.061	811.703	807.104	1213.9	1194.4	1174.2	1156.5	1138.4
x1 = 0.3032	830.352	826.103	821.857	817.482	812.872	1221.8	1201.3	1181	1163.2	1146.6
x1 = 0.4059	840.824	836.541	832.254	827.85	823.26	1234.6	1214	1193.5	1175.7	1159.4
x1 = 0.5048	849.502	845.196	840.881	836.456	831.887	1244.9	1225.3	1204.4	1186.7	1170.3
x1 = 0.604	857.039	852.718	848.373	843.934	839.389	1253.3	1234.6	1214.4	1196.6	1179.7
x1 = 0.7012	863.524	859.19	854.833	850.391	845.859	1261.2	1243	1222.6	1204.8	1187.9
x1 = 0.8028	869.466	865.108	860.733	856.287	851.775	1267.7	1250.2	1230.5	1212.8	1195.7
x1 = 0.8545	872.203	867.842	863.464	859.022	854.514	1270.6	1254.6	1234	1216.2	1199.3
x1 = 0.9056	874.745	870.379	865.982	861.537	857.049	1273.4	1257.5	1237.5	1219.7	1202.1
x1 = 0.954	876.996	872.629	868.284	863.829	859.355	1275.9	1259.8	1240.6	1222.9	1204.7
x1 = 1	879.031	874.632	870.204	865.737	861.241	1279	1260.9	1242.9	1224.9	1207
